≈ marks a conversion by molar mass, not a printed value.
Experiments:
Format in all cases: cell-based
[1] = tested on: ATCC19606 strain (Acinetobacter baumannii); assay: Checkerboard antibacterial synergistic activity test with polymyxin E (FIC); design: key: FIC≤0.5 synergy; 0.5–1 additive; 1–2 indifferent; ≥2 antagonism; conditions: combined with polymyxin E
How it was run: (§1)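 Checkerboard in MH broth: colistin dilutions 16→0.015 μg/ml × test drug 256→4 μg/ml (concentrations before adding inoculum); drug mix plus bacteria, 37° C., 16 h. FIC cut-offs: ≤0.5 synergy; 0.5–1 additive; 1–2 indifferent; ≥2 antagonism.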

[2] = tested on: ATCC9027 strain (Pseudomonas aeruginosa); assay: as above; design: key: FIC≤0.5 synergy; 0.5–1 additive; 1–2 indifferent; ≥2 antagonism; conditions: combined with polymyxin E
How it was run: as §1

[3] = tested on: ATCC25922 strain (Escherichia coli); assay: as above; design: key: FIC≤0.5 synergy; 0.5–1 additive; 1–2 indifferent; ≥2 antagonism; conditions: combined with polymyxin E
How it was run: as §1

[4] = tested on: ATCC13883 strain (Klebsiella pneumoniae); assay: as above; design: key: FIC≤0.5 synergy; 0.5–1 additive; 1–2 indifferent; ≥2 antagonism; conditions: combined with polymyxin E
How it was run: as §1

[5] = tested on: ATCC19606 strain (Acinetobacter baumannii); assay: Broth microdilution, antibacterial activity of the compound used alone; conditions: for MIC: read-out: Antibacterial activity of the compound of Formula I, ATCC19606
Description: (§2) The broth microdilution method was used to test the antibacterial effects of the compounds of the present invention against various Gram-negative bacterial strains when used alone.

[6] = tested on: ATCC9027 strain (Pseudomonas aeruginosa); assay: as above; conditions: for MIC: read-out: Antibacterial activity of the compound of Formula I, ATCC9027
Description: as §2

[7] = tested on: ATCC25922 strain (Escherichia coli); assay: as above; conditions: for MIC: read-out: Antibacterial activity of the compound of Formula I, ATCC25922
Description: as §2

[8] = tested on: ATCC13883 strain (Klebsiella pneumoniae); assay: as above; conditions: for MIC: read-out: Antibacterial activity of the compound of Formula I, ATCC13883
Description: as §2

Row | MIC [5] [µg/mL] | MIC [6] [µg/mL] | MIC [7] [µg/mL] | MIC [8] [µg/mL] | Structure (SMILES) | Synergistic activity (FIC value) ATCC19606 [1] | Synergistic activity (FIC value) ATCC9027 [2] | Synergistic activity (FIC value) ATCC25922 [3] | Synergistic activity (FIC value) ATCC13883 [4] | Antibacterial activity of the compound of Formula I, ATCC19606 [5] [µg/mL] | Antibacterial activity of the compound of Formula I, ATCC9027 [6] [µg/mL] | Antibacterial activity of the compound of Formula I, ATCC25922 [7] [µg/mL] | Antibacterial activity of the compound of Formula I, ATCC13883 [8] [µg/mL]
1 |  |  |  |  | COc1ccc(Oc2cccc(-c3csc(N=C(N)N)n3)c2)c(OC)c1 [Compound I-98] | 0.31 | 0.06 | 0.14 | 0.09 | 256 | 256 | 256 | 256
2 | 256 (≈ 676 µM) | 256 (≈ 676 µM) | 256 (≈ 676 µM) | 256 (≈ 676 µM) | Cc1ccc(Oc2ccccc2-c2csc(NC3=NCCCN3)n2)c(C)c1 [Compound I-143] | 0.38 | 0.04 | 0.04 | 0.19 |  |  |  | 
3 |  |  |  |  | CCc1oc(N=C2NCCCN2)nc1-c1cccc(C(C)C)c1 [Compound I-165] | 0.13 | 0.53 | 0.38 | 0.31 | 256 | 256 | 256 | 256
4 |  |  |  |  | CSc1cc2c(C)cccn2c1-c1csc(N=C(N)N)n1 [Compound I-124] | 0.38 | 0.04 | 0.04 | 0.19 | 256 | 256 | 256 | 256
5 |  |  |  |  | O=C(NC1CC1)c1ccc(-c2nccs2)c(-c2nc(N=C3NCCCN3)sc2Br)c1 [Compound I-141] | 0.51 | 0.52 | 1.25 | 1.25 | 256 | 256 | 256 | 256
6 |  |  |  |  | Clc1cc(Cl)cc(-c2csc(N=C3NCCCN3)n2)c1 [Compound I-187] | 0.25 | 0.5 | 0.56 | 0.31 | 256 | 64 | 128 | 128
7 |  |  |  |  | NC(N)=Nc1nc(-c2ccc3cccnc3c2)cs1 [Compound I-68] | 0.51 | 1.25 | 1.25 | 1.25 | 256 | 256 | 256 | 256
8 |  |  |  |  | O=C(Nc1ccccc1)Nc1cccc(-c2nc(N=C3NCCCN3)sc2Br)c1 [Compound I-198] | 0.75 | 1.25 | 0.5 | 1.25 | 256 | 64 | 128 | 128
9 |  |  |  |  | CS(=O)(=O)c1ccc(Oc2ccccc2-c2nc(N=C(N)N)sc2Cl)cc1 [Compound I-103] | 1.25 | 1.25 | 0.53 | 1.25 | 256 | 256 | 256 | 256
10 |  |  |  |  | CCc1sc(N=C(N)N)nc1-c1ccccc1-c1ccncn1 [Compound I-77] | 0.52 | 1.25 | 0.63 | 0.52 | 256 | 256 | 256 | 256
11 | 256 (≈ 654 µM) | 256 (≈ 654 µM) | 256 (≈ 654 µM) | 256 (≈ 654 µM) | NC(N)=Nc1nc(-c2ccc(OCc3ccccc3)c3nc(O)ccc23)cs1 [Compound I-114] | 0.27 | 1.25 | 0.5 | 1.25 |  |  |  | 
12 |  |  |  |  | CS(=O)(=O)Oc1ccc(-c2coc(N=C(N)N)n2)cc1 [Compound I-28] | 1.25 | 0.51 | 1.25 | 1.25 | 256 | 256 | 256 | 256
13 |  |  |  |  | Cc1sc(N=C(N)N)nc1-c1ccc(Cl)cc1Oc1ccc(Cl)cc1Cl [Compound I-89] | 0.02 | 0.18 | 0.15 | 0.13 | 256 | 256 | 256 | 256
14 |  |  |  |  | NC(N)=Nc1nc(-c2cccc(Oc3ccccc3I)c2)cs1 [Compound I-96] | 0.03 | 0.28 | 0.18 | 0.16 | 256 | 256 | 256 | 256
15 |  |  |  |  | NC(N)=Nc1nc(-c2cccc3ccsc23)c[nH]1 [Compound I-69] | 1.25 | 0.51 | 1.25 | 1.25 | 256 | 256 | 256 | 256
16 |  |  |  |  | Fc1cc(-c2csc(N=C3NCCCN3)n2)c(F)cc1Oc1ccccc1 [Compound I-136] | 1.25 | 1.25 | 0.5 | 1.25 | 256 | 256 | 256 | 256
17 |  |  |  |  | Cc1sc(N=C2NCCCN2)nc1-c1cc(I)cc(I)c1 [Compound I-182] | 0.25 | 0.5 | 0.56 | 0.31 | 256 | 256 | 256 | 256
18 |  |  |  |  | CCc1sc(N=C2NCCCN2)nc1-c1cc(C)c(F)c(C)c1 [Compound I-172] | 0.52 | 1.25 | 0.63 | 0.52 | 256 | 64 | 128 | 128
19 |  |  |  |  | CC(C)c1ccc(-c2c[nH]c(N=C3NCCCN3)n2)cc1 [Compound I-166] | 1.25 | 1.25 | 0.5 | 1.25 | 256 | 256 | 256 | 256
